Measured values: patent publication US7763602B2, “Pyrrole derivatives as antimycobacterial compounds” (priority 2002, dated 2010)
Converted amounts (≈) assume the structure as drawn.

tested on: M. tuberculosis clinical isolates, resistant; assay: microbe, parasite or virus in culture; assay type: cell-based, Mycobacterium tuberculosis; details: Mycobacterium tuberculosis, read-out: MIC (μg/ml) M. tuberculosis Resistant (n = 26)

Compound	MIC [µg/mL]
Cc1c(CN2CCN(c3ncccn3)CC2)cc(-c2ccc(Cl)cc2)n1-c1ccc(Cl)cc1 [compound 5, 1-{[1,5-bis(4-chlorophenyl)-2-methylpyrrol-3-yl]methyl}-4-(2-pyrimidyl) piperazine]	1 to 2 (≈ 2.09 to 4.18 µM)

same assay, conditions: Mycobacterium tuberculosis, read-out: MIC (μg/ml) against Clinical isolates Resistant

Compound	MIC [µg/mL]
Cc1c(CN2CCN(c3ccc(F)cc3)CC2)cc(-c2ccc(Cl)cc2)n1-c1ccc(Cl)cc1 [Compound No. 1, 1-{[1,5-bis(4-chlorophenyl)-2-methylpyrrol-3-yl]methyl}-4-(4-fluorophenyl) piperazine]	2 to 4 (≈ 4.04 to 8.09 µM)
Cc1c(CN2CCN(c3ccc(F)cc3)CC2)cc(-c2ccccc2)n1-c1ccc(F)cc1F [compound 51, 1-{[1-(2,4-difluorophenyl)-2-methyl-5-phenylpyrrol-3-yl]methyl}-4-(4-fluorophenyl)piperazine]	> 16
COc1ccccc1N1CCN(Cc2cc(-c3ccccc3)n(-c3ccc(F)cc3F)c2C)CC1 [compound 52, 1-{[1-(2,4-difluorophenyl)-2-methyl-5-phenylpyrrol-3-yl]methyl}-4-(2-methoxyphenyl)piperazine]	8 to 16 (≈ 16.9 to 33.8 µM)
COc1ccccc1N1CCN(Cc2cc(C)n(-c3ccc(F)cc3F)c2-c2ccccc2)CC1 [compound 56, 1-{[1-(2,4-difluorophenyl)-5-methyl-2-phenylpyrrol-3-yl]methyl}-4-(2-methoxyphenyl) piperazine]	8 to 16 (≈ 16.9 to 33.8 µM)
CO[C@H]1/C=C/O[C@@]2(C)Oc3c(C)c(O)c4c(O)c(c(/C=N/N5CCN(C)CC5)c(O)c4c3C2=O)NC(=O)/C(C)=C\C=C\[C@H](C)[C@H](O)[C@@H](C)[C@@H](O)[C@@H](C)[C@H](OC(C)=O)[C@@H]1C [Rifampicin, reference compound]	4 to 16 (≈ 4.86 to 19.4 µM)
Cc1c(CN2CCN(c3ncccn3)CC2)cc(-c2ccc(Cl)cc2)n1-c1ccc(Cl)cc1 [compound 5, 1-{[1,5-bis(4-chlorophenyl)-2-methylpyrrol-3-yl]methyl}-4-(2-pyrimidyl) piperazine]	0.5 to 2 (≈ 1.05 to 4.18 µM)
Cc1ccc(Cl)cc1N1CCN(Cc2cc(-c3ccc(Cl)cc3)n(-c3ccc(Cl)cc3)c2C)CC1 [compound 10, 1-{[1,5-bis(4-chlorophenyl)-2-methylpyrrol-3-yl]methyl}-4-(5-chloro-2-methylphenyl) piperazine]	1 to 4 (≈ 1.91 to 7.62 µM)
Cc1cc(CN2CCN(c3cccc(C(F)(F)F)c3)CC2)c(-c2ccccc2)n1-c1ccc(F)cc1F [compound 57, 1-{[1-(2,4-difluorophenyl)-5-methyl-2-phenylpyrrol-3-yl]methyl}-4-(3-trifluoromethylphenyl)piperazine]	> 16
Cc1cc(CN2CCN(c3ccc(F)cc3)CC2)c(-c2ccccc2)n1-c1ccc(F)cc1F [compound 55, 1-{[1-(2,4-difluorophenyl)-5-methyl-2-phenylpyrrol-3-yl]methyl}-4-(4-fluorophenyl) piperazine]	> 16
Cc1c(CN2CCN(c3cccc(C(F)(F)F)c3)CC2)cc(-c2ccc(Cl)cc2)n1-c1ccc(F)cc1F [compound 46, 1-{[1-(2,4-difluorophenyl)-5-(4-chlorophenyl)-2-methylpyrrol-3-yl]methyl}-4-(3-trifluoromethylphenyl)piperazine]	4 to 16 (≈ 7.33 to 29.3 µM)
Cc1c(CN2CCN(c3ccc(F)cc3)CC2)cc(-c2ccc(Cl)cc2)n1-c1ccc(F)cc1F [compound 44, 1-{[1-(2,4-difluorophenyl)-5-(4-chlorophenyl)-2-methylpyrrol-3-yl]methyl}-4-(4-fluorophenyl)piperazine]	2 to 4 (≈ 4.03 to 8.06 µM)

same assay, conditions: Table I; agar dilution

Compound	MIC (μg/ml) against Clinical isolates Resistant [µg/mL]
Cc1c(CN2CCN(C(c3ccccc3)c3ccccc3)CC2)cc(-c2ccc(Cl)cc2)n1-c1ccc(F)cc1F [compound 48, 1-{[1-(2,4-difluorophenyl)-5-(4-chlorophenyl)-2-methylpyrrol-3-yl]methyl}-4-(4-diphenylmethyl)piperazine]	>16.0
Cc1c(CN2CCN(Cc3ccc4c(c3)OCO4)CC2)cc(-c2ccccc2)n1NC(=O)c1cnccn1 [compound 29, N-(3-{[4-(2H-benzo[d]1,3-dioxolen-5-ylmethyl)piperazinyl]methyl}-2-methyl-5-phenylpyrrolyl)pyrazin-2-ylcarboxamide]	>16.0
Cc1c(CN2CCN(c3cccc(C(F)(F)F)c3)CC2)cc(-c2ccccc2)n1NC(=O)c1cnccn1 [compound 27, N-(3-{[4-(3-trifluoromethylphenyl)piperazinyl]methyl}-2-methyl-5-phenylpyrrolyl)pyrazin-2-ylcarboxamide]	8.0 (≈ 15.4 µM)
Cc1cc(CN2CCN(c3cccc(C(F)(F)F)c3)CC2)c(-c2ccccc2)n1NC(=O)c1cnccn1 [compound 33, N-(3-{[4-(3-trifluoromethylphenyl)piperazinyl]methyl}-5-methyl-2-phenylpyrrolyl)pyrazin-2-ylcarboxamide]	4.0 to 8.0
Cc1c(CN2CCN(c3ccccn3)CC2)cc(-c2ccccc2)n1NC(=O)c1ccncc1 [compound 14, N-(3-{[4-(2-pyridyl)piperazinyl]methyl}-2-methyl-5-phenylpyrrolyl)-4-pyridylcarboxamide]	4.0 to 8.0
Cc1c(CN2CCN(c3ccccn3)CC2)cc(-c2ccc(Cl)cc2)n1-c1cccc2ccccc12 [compound 61, 1-{[5-(4-chlorophenyl)-2-methyl-1-naphthylpyrrol-3-yl]methyl}-4-(2-pyridyl) piperazine]	4.0 to 8.0
Cc1c(CN2CCN(c3ccc(F)cc3)CC2)cc(-c2ccccc2)n1NC(=O)c1cnccn1 [compound 25, N-(3-{[4-(4-fluorophenyl)piperazinyl]methyl}-2-methyl-5-phenylpyrrolyl)pyrazin-2-ylcarboxamide]	4.0 (≈ 8.5 µM)
COc1ccccc1N1CCN(Cc2cc(-c3ccc(Cl)cc3)n(-c3cccc4ccccc34)c2C)CC1 [compound 59, 1-{[5-(4-chlorophenyl)-2-methyl-1-naphthylpyrrol-3-yl]methyl}-4-(2-methoxyphenyl)piperazine]	>16.0
Cc1cc(CN2CCN(c3cccc(C(F)(F)F)c3)CC2)c(-c2ccc(Cl)cc2)n1NC(=O)c1cnccn1 [compound 43, N-(2-(4-chlorophenyl)-3-{[4-(3-trifluoromethylphenyl)piperazinyl]methyl}-5-methylpyrrolyl)pyrazin-2-ylcarboxamide]	>16.0
Cc1c(CN2CCSCC2)cc(-c2ccccc2)n1NC(=O)c1ccncc1 [compound 21, N-[2-methyl-5-phenyl-3-(1,4-thiazaperhydroin-4-ylmethyl)pyrrolyl]-4-pyridyl carboxamide]	1.0 to 4.0
Cc1c(CN2CCN(c3ccc(F)cc3)CC2)cc(-c2ccccc2)n1NC(=O)c1ccncc1 [compound 11, N-(3-{[4-(4-fluorophenyl)piperazinyl]methyl}-2-methyl-5-phenylpyrrolyl)-4-pyridylcarboxamide]	0.5 to 2.0
Cc1c(CN2CCCC2)cc(-c2ccccc2)n1NC(=O)c1ccncc1 [compound 19, N-[2-methyl-5-phenyl-3-(pyrrolidinylmethyl)pyrrolyl]-4-pyridylcarboxamide]	>16.0
COc1ccccc1N1CCN(Cc2cc(-c3ccccc3)n(NC(=O)c3cnccn3)c2C)CC1 [compound 26, N-(3-{[4-(2-methoxyphenyl)piperazinyl]methyl}-2-methyl-5-phenylpyrrolyl) pyrazin-2-ylcarboxamide]	4.0 to 16.0
Cc1c(CN2CCN(Cc3ccc4c(c3)OCO4)CC2)cc(-c2ccc(Cl)cc2)n1-c1ccc(Cl)cc1 [Compound No. 8, 5-[(4-{[1,5-bis(4-chlorophenyl)-2-methylpyrrol-3-yl]methyl}piperazinyl)methyl]-2H-benzo[d]1,3-dioxolane]	1.0 to 4.0
Cc1c(CN2CCSCC2)cc(-c2ccc(Cl)cc2)n1NC(=O)c1ccncc1 [compound 89, N-[5-(4-chlorophenyl)-2-methyl-3-(1,4-thiazaperhydroin-4-ylmethyl)pyrrolyl]-4-pyridylcarboxamide]	4.0 to 8.0
Cc1cc(CN2CCN(C(c3ccccc3)c3ccccc3)CC2)c(-c2ccccc2)n1NC(=O)c1cnccn1 [compound 36, N-(3-{[4-(diphenylmethyl)piperazinyl]methyl}-5-methyl-2-phenylpyrrolyl) pyrazin-2-ylcarboxamide]	1.0 to 4.0
CCC(CO)n1c(C)c(CN2CCSCC2)c(CO)c1-c1ccccc1 (stereo not shown) [compound 90, 2-[3-(hydroxymethyl)-5-methyl-2-phenyl-4-(1,4-thiazaperhydroin-4-ylmethyl)-pyrrolyl]butan-1-ol]	>16.0
Cc1c(CN2CCN(Cc3ccc4c(c3)OCO4)CC2)cc(-c2ccc(Cl)cc2)n1-c1cccc2ccccc12 [compound 62, 5-[(4-{[5-(4-chlorophenyl)-2-methyl-1-naphthylpyrrol-3-yl]methyl}-piperazinyl)methyl]-2H-benzo[d]1,3-dioxolane]	>16.0
Cc1c(CN2CCN(c3cccc(C(F)(F)F)c3)CC2)cc(-c2ccc(Cl)cc2)n1-c1cccc2ccccc12 [compound 60, 1-{[5-(4-chlorophenyl)-2-methyl-1-naphthylpyrrol-3-yl]methyl}-4-(3-trifluoromethylphenyl)piperazine]	4.0 to 16.0
Cc1c(CN2CCN(Cc3ccc4c(c3)OCO4)CC2)cc(-c2ccccc2)n1NC(=O)c1ccncc1 [compound 17, N-(3-{[4-(2H-benzo[d]1,3-dioxolan-5-ylmethyl)piperazinyl]methyl}-2-methyl-5-phenylpyrrolyl)-4-pyridylcarboxamide]	4.0 to 8.0
Cc1c(CN2CCN(Cc3ccc4c(c3)OCO4)CC2)cc(-c2ccc(Cl)cc2)n1-c1ccc(F)cc1F [compound 50, 5-[(4-{[1-(2,4-difluorophenyl)-5-(4-chlorophenyl)-2-methylpyrrol-3-yl]-methyl}-piperazinyl)methyl]-2H-benzo[d]1,3-dioxolane]	4.0 to 16.0
Cc1c(CN2CCN(C)CC2)cc(-c2ccccc2)n1NC(=O)c1ccncc1 [compound 16, N-{2-methyl-3-[(4-methylpiperazinyl)methyl]-5-phenylpyrrolyl}-4-pyridylcarboxamide]	4.0 to 16.0
